{"source": "patent US20110251220A1", "about": "“Pharmaceutical compositions comprising gamma secretase modulators” (priority 2008, published 2011)", "system": "OBL", "assay": "PARP cleavage in osteoblasts (OBL), mono- and coculture", "format": "cell-based, human", "details": "mono- and cocultures, high doses of GSI15", "procedure": "Human MM cell lines used were as follows: NCI-H929, OPM-2, LP-1, RPMI-8226, U266 (DSMZ, Braunschweig, Germany). Cell lines were cultured in RPMI 1640 medium (Biochrom, Berlin, Germany) supplemented with 10% heat-inactivated fetal calf serum (FCS, Gibco, Karlsruhe, Germany), 1 mM sodium pyruvate and 100 units/ml penicillin and 100 μg/ml streptomycin (Gibco). Human osteoclasts were obtained as described in the reference of Zavrski I, Krebbel H, Wildemann B, et al. Proteasome inhibitors abrogate osteoclast differentiation and osteoclast function. Biochem Biophys Res Commun. 2005; 333:200-205. Briefly, peripheral blood mononuclear cells (PBMC) were isolated from whole blood of healthy volunteers, using a Ficoll-Hypaque density gradient. The adherent fraction of the isolated mononuclear cells was cultured for 21 days in MEM medium (Sigma-Aldrich Chemie, Taufkirchen, Germany) supplemented with 10% FCS, 100 U/ml penicillin, 100 μg/ml streptomycin, 50 ng/ml M-CSF, and 25 ng/ml RANKL (osteoclastogenic medium), before coculture experiments and treatment with the inventive compounds started. […]\nWhole cell extracts were prepared and quantified as described in Jundt F, Anagnostopoulos I, Forster R, Mathas S, Stein H, Dorken B. Activated Notch1 signaling promotes tumor cell proliferation and survival in Hodgkin and anaplastic large cell lymphoma. […]", "data": [{"smiles": "CC(C)c1ccc(S(=O)(=O)Nc2cccnc2Oc2ccc(Cl)cc2)cc1", "note": "[Example 1, N-(2-(4-chlorophenoxy)pyridin-3-yl)-4-isopropylbenzenesulfonamide]", "values": [{"measurement": "PARP cleavage (apoptosis)", "result": "Neither in OBL nor in MSC apoptosis was induced"}]}]}
